Source: patent US6521594B1, “Method and composition for treating thrombosis” (La Jolla Cancer Research Foundation, priority 1990, dated 2003)
pIC50: −log10 of the molar value. Like-named read-outs stand apart in the source and are kept apart here.

Assays:
canine platelets = assay: Canine platelet aggregation in vitro (ADP, arachidonic acid, collagen); type: cell-based, dog; conditions: 10 μm ADP, […] arachidonic acid or 9.6 micrograms/ml collagen; canine PRP; read-out: IC50 against canine platelet aggregation
Method: (§1) Platelet counts and ex vivo aggregation studies were performed one hour before and 1, 3, and 5 hours after application of anodal direct current.
Epinephrine (550 nM) was used to prime platelets before stimulation with arachidonic acid. Peptides were added in 1% dilutions to the PRP solutions.

platelets [1] = assay: Ex vivo platelet aggregation in the canine coronary thrombosis study; parameters: species or system dog
Method: For all ex vivo studies (see FIG. 3), control aggregation values were standardized to the percentages of light transmission observed in PRP and PPP samples (0% and 100%, respectively).
(§2) Animals were randomly assigned to two treatment groups: vehicle control (i.e., normal saline) or RGD peptides at various concentrations. Peptides were administered intra-atrially in both bolus and continuous injections. Each bolus injection consisted of 0.5 to 10 mg/kg and was administered 15 minutes before application of the current. A continuous infusion of the same peptide was then started immediately after completion of this initial injection. Animals received a 25 μg/kg/min to 200 μg/kg/min infusion. The anti-thrombotic effects of the peptides were monitored until 30 minutes after the occurrence of a persistent, occlusive thrombus or five hours after the initiation of electrical stimulation (whichever resulted first). If an occlusive thrombus had not developed within four hours after the initiation of current, the peptide infusion was stopped.
as §1
Platelet aggregation was also determined ex vivo at one, three, and five hours after current application. For these studies, arachidonic acid, or collagen was again used to stimulate the platelets.

coronary thrombosis = assay: Electrically induced canine coronary thrombosis (time to full occlusion); type: in vivo, dog
Method: Male mongrel dogs weighing 14 to 20 kg were selected based on proper aggregation of their platelets in response to arachidonic acid, collagen, and adenosine disphosphate (ADP) and based on similar weights and hemodynamic properties.
Before surgery, the animals were anesthetized with sodium pentobarbital (30 mg/kg, i.v.) and then intubated and ventilated on room air with positive pressure using a respirator (Harvard Apparatus, S. Natick, Mass.) at a volume of 30 ml/kg and a frequency of 12 breaths/min. Surgery, performed under aseptic conditions, was begun with the placement of cannulae into the left carotid artery and jugular vein for monitoring arterial blood pressure (Statham P23 pressure transducer, Gould, Inc., Cardiovascular Products, Oxnard, Calif.) and administering intravenous fluids.
The heart was exposed via a left thoracotomy through the 5th intercostal space. A 2-cm segment of the left circumflex coronary artery (LCCA) was isolated from surrounding tissue by blunt dissection. […] The intra-coronary electrode was constructed by attaching a 25-gauge hypodermic needle tip to a 30-gauge Teflon-insulated silver-coated copper wire. The mechanical occluder was constructed of stainless steel in a C shape with a Teflon screw (2 mm diameter) on top. It was adjusted to control vessel circumference and decrease the reactive hyperemic flow due to a 10-sec (full) occlusion by 50-70% without affecting basal coronary blood flow (FIG. 1). A monopolar epicardial electrode was sutured to the surface of the ventricle in the region of LCCA distribution to monitor ischemic changes in the electrocardiogram (ECG). The left atrium was cannulated with polythylene tubing for administration of the peptide. Continuous recordings of blood pressure, limb lead II ECG, epicardial electrogram, and mean and phasic LCCA blood flow were obtained on a Model 7 polygraph (Grass Instrument Co., Quincy, Mass.).
One hour after the completion of surgery, a 100 micro-amp continuous anodal direct current delivered from a 9 volt nickel-cadmium battery was applied to the intimal surface of the LCCA. The anode of the battery was in series with a 250,000 ohm potentiometer and the intraluminal coronary artery electrode. The electric circuit was completed by placing the cathode in a subcutaneous site. Electrical stimulation was applied for three hours. At the conclusion of each experiment, the heart was fibrillated electrically and quickly removed, and the LCCA was dissected free as far as possible to verify the position of the implanted anodal electrode.
as §2
Coronary thrombosis was quantified as the time to full occlusion. The effects of the various peptide treatments on coronary thrombosis is illustrated in FIG. 4.

[2] = tested on: prosthetic arterial graft thrombosis; assay: Platelet and fibrinogen uptake by Gore-Tex arterial grafts in ex vivo shunt; parameters: species or system baboon
Method: Adult male baboons (weighing 16 to 25 kg) were used in these studies. These were sedated with ketamine hydrochloride (200 to 250 mg intramuscular injection) and maintained under anesthesia with sodium pentobarbital (50 to 75 mg administered intravenously as necessary).
Twenty-four hours before the ex vivo shunt was established, platelets were isolated from 500 ml of blood from the test animal and labelled with ca. 500 microcuries of indium-111 oxine (Medi+Physics, Emeryville, Calif.), which irreversibly and specifically binds to platelets with an efficiency of 50%. Immediately after labelling, these platelets were then injected back into the animal and allowed to circulate for 24 hours. Immediately before the start of the study, fibrinogen that had been isolated from the animal and labelled with iodine-131 (DuPont Nuclear, Boston, Mass.) was also injected back into the animal. Also at this time, baseline determinations of the clotting and template bleeding times were made, and blood samples were drawn for hematology studies.
To establish the ex vivo shunt, the femoral artery and vein were percutaneously cannulated with introducer catheters (KMA Inc., Mansfield, Mass.). The catheters were then connected to medical-grade, heparin-coated silastic tubing (2.59 mm internal diameter, (Extracorporeal Medical Specialties, Inc., King of Prussia, Pa.). […] Finally, a 5 cm-long test segment of a 4 mm (internal diameter) vascular graft was inserted at the apex of the circuit. The graft used in these studies was Gore-tex (expanded polytetrafluoroethylene, (W. L. Gore and Associates, Inc., Flagstaff, Ariz.). An electromagnetic flow probe was then inserted into the tubing circuit to measure blood flow, which was maintained at 100 ml/min. by varying the resistance imported by a partially occluding screw clamp that was distal to the probe. Finally, a 5 cm-long test segment of a 4 mm (internal diameter) vascular graft was inserted at the apex of the circuit. The graft used in these studies was Gore-tex (expanded polytetrafluoroethylene, W. L. Gore and Associates, Inc., Flagstaff, Ariz.).
Platelet deposition onto the grafts was monitored by dynamic scanning with a gamma camera (Sigma 400, Ohio Nuclear, Inc., Sohon, Ohio), which detects the gamma radiation emitted by the ^111indium-labelled platelets. Once the circuit was in place, the animal was placed under this camera, and blood flow was initiated. Scans were then taken at the rate of one frame per two minutes for two hours. The data from these scans were collected on a dedicated Digital MDA computer (Maynard, Mass.). […]

platelets [3] = assay: Ex vivo platelet aggregation on PRP of baboon; type: in vivo; conditions: animal 2; ADP 10 μm; 0, 1 and 2 hours
Method: At one- and two-hour time points, template bleeding times were measured, and blood samples were drawn to assess the hematology aggregation studies. Platelet aggregation studies were performed as described in Example V using ADP as the stimulus.
In addition, platelet aggregation studies were conducted on PRP derived from the second animal. Whole blood was drawn at three time points (0, 1 and 2 hours) of both control and experimental shunts.

αIIbβ3 = target: T1, αIIbβ3 (Homo sapiens, UniProt P05106+P08514); assay: αIIbβ3 (IIb/IIIa-fibrinogen) ELISA of Example XII; type: binding; conditions: comparator analogue 1
T1 construct: Platelet glycoprotein IIb/IIIa was purified from outdated human platelets; from tissue; host or cells: outdated human platelets
Method: Microtiter plates were coated overnight at room temperature with 110 μL of human fibrinogen (at 10 μg/mL) diluted in TBS. The plates were then washed three times with 200 μL per well of TBS+0.05% Tween-20. Fifty (50) μL of purified IIb/IIIa diluted in TBS with 20 mM octylglucoside, 2 mM MgCl2 and 2 mM CaCl2 were added to the wells. Fifty (50) μLs of peptide in the same buffer were then added in 10-fold serial dilutions and the plates were incubated for three hours at room temperature. The plates were washed three times with TBS-Tween and 100 μL of rabbit anti-IIb/IIIa were added to each well. After a two hour room temperature incubation, the plates were washed and the remaining steps done as described for the FnR ELISA.
The peptides described in this Example were synthesized according to the methods of Examples I and XI. Selectivity and potency were measured according to the methods of Examples II through XI. The peptide identification numbers used in this Example are consistent and relevant to this Example only. Some of the peptides are identified by other nomenclature elsewhere in this document.

[4] = target: T2, vitronectin receptor (Vn-R) (Homo sapiens, UniProt P05106+P06756); assay: Vitronectin receptor binding (ELISA or liposome attachment assay); conditions: read-out: VnR Binding (IC50), purified receptor
T2 construct: from tissue; host or cells: human placenta
Method: Receptor and ligand purifications were performed according to the methods in this Example or those in Example XI.C. Receptors were purified according to the procedures of Pytela et al. (Methods Enzymol. 144:475 (1987)), incorporated herein by reference. […] Except where stated, all procedures were carried out at 4° C. The peptide column was washed with three volumes of Tris-buffered saline (TBS) containing 1 mM Ca^2+ and 25 mM OG and then with TBS containing 1 mM Ca^2+ and 25 mM octyl thioglucoside (OTG) at room temperature. […] Finally, Ca^2+ and Mg^+2 were added to eluted fractions to achieve final concentrations of 1 mM for both ions.
Maxisorp microtiter plates were coated with 2 μg/ml human vitronectin dissolved in PBS (50 ml/well) and stored overnight at 4° C. The plates were washed two times with PBS-0.05% Tween-20 (wash buffer) and blocked by incubating with about 150 μl/well of assay buffer (1%, BSA (RIA grade or better) in 50 mM Tris-HCl, 100 mM NaCl, 1 mM MgCl2, CaCl2, MnCl2 pH 7.4) for 60 minutes. […] The plates were read at 492-405 nm and the data analyzed by four-parameters fit. […]
In parallel studies with the platelet aggregation experiments (described in Example V), the apparent affinities of peptides for GP IIb/IIIa, fibronectin and vitronectin receptors were determined. […]
Those for VnR and GP IIb/IIIa were determined either by ELISA or liposome attachment assay (Example IV).

platelets [5] = target: T3, platelets (Homo sapiens, UniProt P05106+P08514); type: cell-based; conditions: ADP 10 μm; citrated PRP; read-out: ADP-Stimulated Aggregation (IC50)
Method: Briefly, the change in light transmission was measured through a stirred suspension of platelets in an aggregometer (Model 400 VS, Chrono-Log, Havertown, Pa., USA). […] In studies using thrombin, the PRP was gel-filtered on Sepharose 2B in divalent ion-free Tyrode's solution containing 2% BSA. For all studies, the reference standard was platelet-poor plasma, which was obtained by centrifuging PRP at 1000×g for 5 min.
All aggregation studies were performed at 37° C. with a constantly stirred suspension of 3×10^8 platelets/ml. (Platelet count was determined with the aid of a hemacytometer.) Peptides and stimulants were added to these suspensions in 1% dilutions. The PRP and gel-filtered platelets were used within three hours from the time of blood collection.
Peptide anti-aggregation potencies were determined from dose-responsive curves for the inhibition of the maximum aggregation responses stimulated by physiologic doses of ADP (10 μm) and thrombin (2 U/ml).

platelets [6] = target: T3, platelets; assay: Human platelet aggregation in PRP (modified assay, Table II); type: cell-based; conditions: citrate, collagen, U46619 or ADP
Method: In an independent study, a slightly modified aggregation assay was used. Platelet aggregation assays were performed in human platelet rich plasma (PRP). […] The blood was centrifuged at 160×g for 10 minutes at 22° C. and allowed to stand for 5 minutes after which the PRP was decanted. Platelet poor plasma (PPP) was isolated from the remaining blood after centrifugation at 2000×g for 25 minutes. The platelet count of the PRP was diluted to about 300,000 platelets per microliter with PPP.
A 225 μl aliquot of PRP plus 25 μl of either a dilution of the test inhibitor sample or a control (PBS) was incubated for 5 minutes in a Chrono-log Whole Blood Aggregometer at 37° C.

platelets [7] = assay: Ex vivo platelet aggregation in dogs (Example XII.H); parameters: species or system dog; dose or concentration left out as unconfirmed
Method: More importantly, several peptides in FIG. 23 were administered to dogs (according to the method of Example VII) at doses capable of inhibiting ex vivo platelet aggregation by >95%.
The bleeding time indicated in the parentheses was measured at a five-fold higher concentration of peptide. […]

[8] = 10 mg/kg injection, 1, 3 and 5 h
[9] = animal 1, two bolus IV injections of 10 mg/kg
[10] = animal 2, 10 mg/kg bolus IV + 10 mg/kg/hr infusion for 2 h

T3 sequence (P08514 32-1039): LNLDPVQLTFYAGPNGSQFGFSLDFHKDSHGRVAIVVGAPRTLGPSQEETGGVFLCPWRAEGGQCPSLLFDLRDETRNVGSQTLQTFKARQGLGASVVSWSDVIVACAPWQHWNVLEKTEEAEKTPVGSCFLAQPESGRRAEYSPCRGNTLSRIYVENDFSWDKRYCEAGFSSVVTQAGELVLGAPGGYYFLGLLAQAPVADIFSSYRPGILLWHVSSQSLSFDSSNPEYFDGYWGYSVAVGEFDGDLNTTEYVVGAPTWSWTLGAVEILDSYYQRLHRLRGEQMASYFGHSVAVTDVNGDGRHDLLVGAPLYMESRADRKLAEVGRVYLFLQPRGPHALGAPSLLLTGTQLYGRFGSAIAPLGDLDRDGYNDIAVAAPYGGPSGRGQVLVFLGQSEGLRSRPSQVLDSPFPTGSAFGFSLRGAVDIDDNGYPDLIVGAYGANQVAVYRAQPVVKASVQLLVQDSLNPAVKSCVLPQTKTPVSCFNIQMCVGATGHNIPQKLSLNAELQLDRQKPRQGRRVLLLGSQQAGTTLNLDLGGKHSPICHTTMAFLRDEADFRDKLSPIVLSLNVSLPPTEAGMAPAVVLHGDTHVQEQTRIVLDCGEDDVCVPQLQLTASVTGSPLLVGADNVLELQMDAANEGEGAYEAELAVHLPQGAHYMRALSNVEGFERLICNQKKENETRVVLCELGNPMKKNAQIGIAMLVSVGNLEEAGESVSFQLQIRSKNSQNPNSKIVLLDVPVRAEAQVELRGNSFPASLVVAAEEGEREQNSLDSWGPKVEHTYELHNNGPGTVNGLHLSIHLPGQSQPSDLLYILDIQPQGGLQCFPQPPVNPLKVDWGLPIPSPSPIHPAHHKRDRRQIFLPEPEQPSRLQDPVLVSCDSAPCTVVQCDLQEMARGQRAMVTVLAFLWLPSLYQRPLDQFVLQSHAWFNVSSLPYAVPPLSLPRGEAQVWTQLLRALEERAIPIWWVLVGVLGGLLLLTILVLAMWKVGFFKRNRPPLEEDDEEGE
T3 sequence (P05106 27-788): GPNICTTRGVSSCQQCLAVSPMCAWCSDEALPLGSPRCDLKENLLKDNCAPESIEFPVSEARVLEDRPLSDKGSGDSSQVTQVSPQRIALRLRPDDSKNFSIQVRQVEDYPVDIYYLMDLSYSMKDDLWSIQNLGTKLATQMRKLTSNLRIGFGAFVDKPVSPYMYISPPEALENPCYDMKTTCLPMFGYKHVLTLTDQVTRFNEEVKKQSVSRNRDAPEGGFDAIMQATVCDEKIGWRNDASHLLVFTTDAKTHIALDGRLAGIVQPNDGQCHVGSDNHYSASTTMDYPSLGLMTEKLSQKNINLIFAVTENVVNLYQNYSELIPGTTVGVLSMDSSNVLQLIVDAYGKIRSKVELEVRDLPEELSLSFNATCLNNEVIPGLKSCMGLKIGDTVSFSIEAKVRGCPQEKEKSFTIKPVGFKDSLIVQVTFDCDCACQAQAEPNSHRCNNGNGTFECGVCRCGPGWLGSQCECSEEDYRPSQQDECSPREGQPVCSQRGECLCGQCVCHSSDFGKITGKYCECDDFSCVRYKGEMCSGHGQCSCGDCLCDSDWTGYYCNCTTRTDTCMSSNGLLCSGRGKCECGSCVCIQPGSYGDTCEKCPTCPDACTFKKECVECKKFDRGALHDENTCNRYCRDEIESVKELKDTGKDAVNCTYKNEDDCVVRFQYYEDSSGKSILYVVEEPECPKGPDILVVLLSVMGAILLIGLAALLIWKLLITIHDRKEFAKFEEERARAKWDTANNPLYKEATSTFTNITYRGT
T2 sequence (P06756 31-889 limits assumed): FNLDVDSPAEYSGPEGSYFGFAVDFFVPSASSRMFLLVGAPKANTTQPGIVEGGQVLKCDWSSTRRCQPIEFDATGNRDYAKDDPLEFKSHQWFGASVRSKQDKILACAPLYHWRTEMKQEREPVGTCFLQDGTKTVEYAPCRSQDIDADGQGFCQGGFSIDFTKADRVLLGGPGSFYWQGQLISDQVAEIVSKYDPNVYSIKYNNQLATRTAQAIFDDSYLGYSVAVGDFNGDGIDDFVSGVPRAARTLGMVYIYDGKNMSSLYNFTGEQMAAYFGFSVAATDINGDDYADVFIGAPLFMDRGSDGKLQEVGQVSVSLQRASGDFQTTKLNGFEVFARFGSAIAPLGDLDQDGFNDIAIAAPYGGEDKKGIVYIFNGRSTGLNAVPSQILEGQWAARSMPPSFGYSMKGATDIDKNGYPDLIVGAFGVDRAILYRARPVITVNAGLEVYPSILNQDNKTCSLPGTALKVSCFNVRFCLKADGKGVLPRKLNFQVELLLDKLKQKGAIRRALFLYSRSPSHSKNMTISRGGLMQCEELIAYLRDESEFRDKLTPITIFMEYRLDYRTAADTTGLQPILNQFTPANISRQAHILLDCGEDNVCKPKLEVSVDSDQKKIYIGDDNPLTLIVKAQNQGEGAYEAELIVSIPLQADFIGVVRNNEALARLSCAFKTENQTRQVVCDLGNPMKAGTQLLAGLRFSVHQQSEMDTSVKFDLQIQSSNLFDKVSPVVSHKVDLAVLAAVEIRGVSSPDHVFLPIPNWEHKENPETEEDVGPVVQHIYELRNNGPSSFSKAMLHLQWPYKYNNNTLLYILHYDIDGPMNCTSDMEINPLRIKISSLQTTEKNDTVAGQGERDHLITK
T2 sequence (P06756 891-1048 limits assumed): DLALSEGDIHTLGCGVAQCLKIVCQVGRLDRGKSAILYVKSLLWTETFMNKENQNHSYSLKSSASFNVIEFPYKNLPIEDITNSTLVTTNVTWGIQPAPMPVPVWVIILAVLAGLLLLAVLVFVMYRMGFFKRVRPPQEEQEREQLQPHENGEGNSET
T2 sequence (P05106 27-788): as the sequence (P05106 27-788) above
T1 sequence (P08514 32-887 limits assumed): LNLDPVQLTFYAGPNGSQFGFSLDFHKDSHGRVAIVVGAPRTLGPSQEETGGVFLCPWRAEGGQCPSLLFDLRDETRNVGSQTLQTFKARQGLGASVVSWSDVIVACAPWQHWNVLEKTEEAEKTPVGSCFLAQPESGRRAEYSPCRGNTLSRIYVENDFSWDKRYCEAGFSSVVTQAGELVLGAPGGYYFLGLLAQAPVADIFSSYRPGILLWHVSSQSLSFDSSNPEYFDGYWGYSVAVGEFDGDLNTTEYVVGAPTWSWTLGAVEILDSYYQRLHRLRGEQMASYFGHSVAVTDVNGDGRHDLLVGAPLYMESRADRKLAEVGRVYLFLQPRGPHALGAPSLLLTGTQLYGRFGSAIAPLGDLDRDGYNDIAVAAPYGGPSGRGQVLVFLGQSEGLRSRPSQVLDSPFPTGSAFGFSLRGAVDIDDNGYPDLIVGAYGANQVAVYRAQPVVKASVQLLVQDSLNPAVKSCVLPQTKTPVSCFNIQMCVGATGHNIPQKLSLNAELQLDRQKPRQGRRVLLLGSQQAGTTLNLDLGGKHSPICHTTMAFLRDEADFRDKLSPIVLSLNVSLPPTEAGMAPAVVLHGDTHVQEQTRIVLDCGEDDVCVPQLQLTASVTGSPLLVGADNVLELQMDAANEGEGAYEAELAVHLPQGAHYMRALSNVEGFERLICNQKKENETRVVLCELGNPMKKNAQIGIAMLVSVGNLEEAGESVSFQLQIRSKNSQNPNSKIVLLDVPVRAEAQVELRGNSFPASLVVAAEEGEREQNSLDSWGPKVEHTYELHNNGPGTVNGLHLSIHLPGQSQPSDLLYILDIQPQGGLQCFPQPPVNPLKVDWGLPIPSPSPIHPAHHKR
T1 sequence (P08514 891-1039 partner limits assumed): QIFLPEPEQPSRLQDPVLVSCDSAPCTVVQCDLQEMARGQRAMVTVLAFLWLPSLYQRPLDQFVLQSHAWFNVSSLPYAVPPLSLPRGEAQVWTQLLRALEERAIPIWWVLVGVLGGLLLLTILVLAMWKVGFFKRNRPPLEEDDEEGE
T1 sequence (P05106 27-788): as the sequence (P05106 27-788) above

G(Pen)GHRGDLRCA [2G]
pIC50 (canine platelets): 4.52 to 4.82 | effect on ADP-stimulated ex vivo aggregation (platelets [1]; [8]): substantially inhibited | inhibition of AA-stimulated ex vivo aggregation relative to control (platelets [1]; [8]): 43-70% | inhibition of collagen-stimulated ex vivo aggregation relative to control (platelets [1]; [8]): 12-50% | coronary thrombosis: time to full occlusion (coronary thrombosis; 10 mg/kg): did not significantly influence | reduction in 111In-platelet uptake by graft [2, 9]: 90% | reduction in 131I-fibrinogen uptake by graft [2, 9]: 79% | reduction in labelled fibrinogen uptake by graft [2, 10]: 78% | reduction in labelled platelet uptake by graft [2, 10]: 84% | ex vivo platelet aggregation response (platelets [3]): completely unresponsive to the peptide treatment

G(dPen)GHRGDLRCA
fold more potent than analogue 1 in the αIIbβ3 assay (αIIbβ3): approximately 2 fold

G(Pen)IARGDWNCA
pIC50 [4]: 7.40

R(Pen)GHRGDWRCR [4Q]
pIC50 (platelets [5]): 5.89 | pIC50 (platelets [6]): 5.48 | ex vivo platelet activation by collagen (platelets [1]; 5 mg/kg injection): near-maximal inhibition | ex vivo platelet response to ADP and AA (platelets [1]; 5 mg/kg injection, all three time points): completely unresponsive | ex vivo platelet aggregation by ADP, AA and collagen (platelets [1]; 10 mg/kg injection): prevented platelet aggregation by all three stimuli at one- and three-hour time points | coronary thrombosis: time to full occlusion (coronary thrombosis; 5 mg/kg): significantly prolonged the time to occlusion | thrombus formation in animals with platelet levels one-third of normal (coronary thrombosis; 5 mg/kg): able to prevent thrombus formation | coronary thrombosis: time to full occlusion (coronary thrombosis; 10 mg/kg): completely prevented occlusion

Ac-CNPRGD(Y-OMe)RCNH2 [8X]
inhibition of ex vivo platelet aggregation (platelets [7]): > 95%
